Our source for the IC50 values is BindingDB's records for doi:10.7270/Q2M9073J (Burnham Center For Chemical Genomics, 2010).

Bounds are passed on as bounds.

The test deals with T1, Tyrosine-protein phosphatase non-receptor type 22 (Homo sapiens, UniProt Q9Y2R2).
T1 sequence (Q9Y2R2 whole entry): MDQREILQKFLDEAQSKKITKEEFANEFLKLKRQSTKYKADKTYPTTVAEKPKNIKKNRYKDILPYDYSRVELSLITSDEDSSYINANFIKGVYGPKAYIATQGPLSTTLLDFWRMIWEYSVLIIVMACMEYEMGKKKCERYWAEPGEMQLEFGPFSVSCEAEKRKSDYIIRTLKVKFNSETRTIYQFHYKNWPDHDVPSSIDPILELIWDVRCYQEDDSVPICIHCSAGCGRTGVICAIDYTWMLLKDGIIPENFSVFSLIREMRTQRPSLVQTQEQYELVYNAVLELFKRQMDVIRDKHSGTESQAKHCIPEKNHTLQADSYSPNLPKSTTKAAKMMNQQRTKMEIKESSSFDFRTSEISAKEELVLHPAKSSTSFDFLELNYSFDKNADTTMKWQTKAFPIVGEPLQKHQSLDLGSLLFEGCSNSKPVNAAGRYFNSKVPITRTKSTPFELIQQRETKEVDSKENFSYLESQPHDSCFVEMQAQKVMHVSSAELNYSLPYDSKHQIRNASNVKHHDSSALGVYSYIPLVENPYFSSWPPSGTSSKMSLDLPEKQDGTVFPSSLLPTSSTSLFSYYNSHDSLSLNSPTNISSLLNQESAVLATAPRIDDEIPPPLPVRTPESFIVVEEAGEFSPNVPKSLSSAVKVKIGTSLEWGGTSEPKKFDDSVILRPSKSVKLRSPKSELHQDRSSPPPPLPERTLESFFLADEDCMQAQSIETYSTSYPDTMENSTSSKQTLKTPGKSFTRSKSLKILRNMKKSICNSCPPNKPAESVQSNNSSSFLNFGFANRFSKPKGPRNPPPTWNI
In words: inhibition of lymphoid tyrosine phosphatase LYP – biochemical, pCAP fluorogenic substrate, fluorescence, set 3, SAR follow-up (AID 449727).

On to `CCOc1ccc2nc(NC(=O)CSc3cc(O)c4c(C)c(C)sc4n3)sc2c1` [2-[(2,3-dimethyl-4-oxidanylidene-5H-thieno[2,3-b]pyridin-6-yl)sulfanyl]-N-(6-ethoxy-1,3-benzothiazol-2-yl)ethanamide], for which the IC50 (commonly the midpoint of a concentration-inhibition curve) is above 100 µM.
